According to US6503936B1 (priority 1998, dated 2003):
Where two headings read alike, the source gives them in different places.

Assays:
[1] = test system: Phytophthora infestans; format: in vivo; details: tomato leaves, 6 days after infection
[2] = test system: Phytophthora infestans; format: in vivo; details: tomato leaves, 6 days after infection; remark: listed apart in the source

O=S(=O)([O-])[O-].[Cu+2].[Cu+2].[Cu+2].[Cu+2].[OH-].[OH-].[OH-].[OH-].[OH-].[OH-] [II.1, tribasic copper sulfate 3Cu(OH)2xCuSO4]
Efficiency in % of the untreated control ([1]; 12.5 ppm active compound in the spray liquor): 0%
Efficiency in % of the untreated control ([1]; 25 ppm active compound in the spray liquor): 0%
Efficiency in % of the untreated control ([1]; 50 ppm active compound in the spray liquor): 0%
Efficiency in % of the untreated control ([1]; 100 ppm active compound in the spray liquor): 10%
Efficiency in % of the untreated control ([2]; Conc. 12.5 ppm): 0%
Efficiency in % of the untreated control ([2]; Conc. 25 ppm): 8%
Efficiency in % of the untreated control ([2]; Conc. 50 ppm): 8%
Efficiency in % of the untreated control ([2]; Conc. 100 ppm): 8%
Efficiency in % of the untreated control ([2]; Conc. 200 ppm): 8%
